Results taken from patent publication US7354936B2, “2-phenylpyran-4-one derivatives” (Almirall AG, priority 2000, dated 2008).

Assays:
[1] = target: T1, COX-1 (Homo sapiens, UniProt P23219); test: COX-1 activity in human whole blood (TXB2, calcium ionophore A23187); format: cell-based; settings: 1 h at 37° C., TXB2 by ELISA
T1 construct: Fresh blood from healthy volunteers; from tissue; host or cells: human whole blood (heparinized) from healthy volunteers

[2] = target: T2, COX-2 (Homo sapiens, UniProt P35354); test: COX-2 activity in human whole blood (PGE2, LPS-induced); format: cell-based; settings: for IC50: LPS 24 h at 37° C., PGE2 by ELISA; for Ratio COX-1/COX-2: ratio of COX-1/COX-2 IC50 values
T2 construct: incubated in the presence of LPS (10:g/ml) for 24 h at 37° C. in order to induce the COX-2 expression; from tissue; host or cells: human whole blood (heparinized) from healthy volunteers, LPS-stimulated for 24 h
T2 sequence (P35354 18-604): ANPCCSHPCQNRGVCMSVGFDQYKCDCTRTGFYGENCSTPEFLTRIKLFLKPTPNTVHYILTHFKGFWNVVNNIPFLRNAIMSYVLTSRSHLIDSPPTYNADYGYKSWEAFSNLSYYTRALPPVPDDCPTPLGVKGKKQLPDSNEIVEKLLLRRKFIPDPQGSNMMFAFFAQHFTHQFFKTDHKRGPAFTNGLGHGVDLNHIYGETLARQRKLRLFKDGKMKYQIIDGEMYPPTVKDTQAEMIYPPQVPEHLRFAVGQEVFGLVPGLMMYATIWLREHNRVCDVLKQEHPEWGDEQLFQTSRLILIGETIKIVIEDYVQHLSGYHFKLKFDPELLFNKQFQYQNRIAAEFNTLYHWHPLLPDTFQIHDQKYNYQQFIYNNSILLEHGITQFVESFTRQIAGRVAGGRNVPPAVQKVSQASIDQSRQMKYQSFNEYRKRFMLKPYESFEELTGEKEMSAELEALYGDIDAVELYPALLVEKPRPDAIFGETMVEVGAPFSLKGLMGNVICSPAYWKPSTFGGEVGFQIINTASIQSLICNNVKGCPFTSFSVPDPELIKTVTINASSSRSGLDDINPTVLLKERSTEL

T1 sequence (P23219 24-599): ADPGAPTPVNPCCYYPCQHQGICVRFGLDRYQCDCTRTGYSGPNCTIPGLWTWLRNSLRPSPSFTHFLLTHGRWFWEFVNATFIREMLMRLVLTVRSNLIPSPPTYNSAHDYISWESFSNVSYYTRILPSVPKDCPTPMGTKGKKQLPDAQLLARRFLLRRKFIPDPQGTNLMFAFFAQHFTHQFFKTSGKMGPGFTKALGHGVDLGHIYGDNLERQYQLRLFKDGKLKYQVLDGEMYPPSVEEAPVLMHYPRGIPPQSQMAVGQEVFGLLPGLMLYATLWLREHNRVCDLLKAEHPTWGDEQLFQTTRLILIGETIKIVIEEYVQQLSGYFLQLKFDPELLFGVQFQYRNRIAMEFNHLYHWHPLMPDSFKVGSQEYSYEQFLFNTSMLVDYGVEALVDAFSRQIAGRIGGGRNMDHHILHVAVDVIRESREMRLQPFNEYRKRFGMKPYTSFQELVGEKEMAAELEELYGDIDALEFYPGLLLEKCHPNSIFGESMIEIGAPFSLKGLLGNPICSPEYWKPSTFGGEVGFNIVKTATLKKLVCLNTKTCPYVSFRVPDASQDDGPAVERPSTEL

IC50 [1] [µM]	IC50 [2] [µM]	Ratio COX-1/COX-2 [2]	melting point [°C]	Structure (SMILES)
31.2	1.43	22	184	C=Cc1c(C)oc(-c2ccc(S(C)(=O)=O)cc2)c(Oc2ccc(F)cc2F)c1=O [Example 20, 3-(2,4-Difluorophenoxy)-2-(4-methanesulfonylphenyl)-6-methyl-5-vinyl pyran-4-one]
14.2	0.3	47	162	Cc1cccc(Oc2c(-c3ccc(S(C)(=O)=O)cc3)oc(C)cc2=O)c1 [Example 11, 2-(4-Methanesulfonylphenyl)-6-methyl-3-(3-methylphenoxy)pyran-4-one]
26	0.53	74	274	Cc1oc(-c2ccc(S(C)(=O)=O)cc2)c(Oc2ccc(Cl)cc2)c(=O)c1Cl [Example 16, 3-Chloro-5-(4-chlorophenoxy)-6-(4-methanesulfonylphenyl)-2-methyl pyran-4-one]
19.9	0.086	231	168	Cc1cc(=O)c(Oc2ccccc2C)c(-c2ccc(S(C)(=O)=O)cc2)o1 [Example 10, 2-(4-Methanesulfonylphenyl)-6-methyl-3-(2-methylphenoxy)pyran-4-one]
